From publication PMC3335078, “Length and Amino Acid Sequence of Peptides Substituted for the 5-HT3A Receptor M3M4 Loop May Affect Channel Expression and Desensitization” (PLoS ONE, 2012) come the findings set out here.

For assay [1], the target named is T1, 5-HT3A receptor wild-type (Mus musculus, UniProt P23979).
T1 construct: unrelated to the structural/functional states accessible to a normal full-length 5-HT3A receptor; expressed in transfected cells; host or cells: Xenopus laevis oocytes injected with mRNA
Description: Radioactive 5-HT binding to oocytes expressing WT 5-HT3A. The note with it: 150 nM [3H]5-HT + 10 µM 5-HT, 5 min room temperature, 45 s cold wash. How it is done: Assays were terminated by five washes with ice cold CFFR buffer, followed by solubilization of the oocytes individually with 200 µl 5% SDS. Total wash time was 45 s. […] All data points represent the average of at least fifteen individual oocytes derived from three separate oocyte isolations.
To determine the extent of non-specific binding, all binding experiments were performed in parallel with diethylpyrocarbonate-(DEPC)-treated-water injected oocytes or uninjected oocytes.

Assay [2] addresses T2, 5-HT3A M3M4 loop SQAPARA construct (Mus musculus, UniProt P23979).
T2 construct: expressed in transfected cells; host or cells: Xenopus laevis oocytes injected with mRNA
In words: Two-electrode voltage clamp, oocytes expressing SQAPARA loop construct. Format: cell-based. Conditions: 10 µM 5-HT, Xenopus oocytes. The text has this:
(§1) The mouse 5-HT3A cDNA with an N-terminal V5 epitope tag was cloned into the pXOON vector as previously described, and is referred to in this paper as “wild-type” (WT). The starting construct for all of the M3M4 loop replacement constructs used in this work was the 5-HT3A-ΔM3M4 construct formed by splicing the cytoplasmic end of M3 (M3-LVHK/QDLQRP…) to the cytoplasmic end of M4 (…WLRVGY/VLDRLL-M4). The splice was made at the site of the “/” to yield the sequence M3-LVHK/VLDRLL-M4 [34]. This removed 115 residues predicted to form the M3M4 loop.
(§2) The construction of the 5-HT3A-glvM3M4 chimera with the 5-HT3A M3M4 loop replaced by the GLIC heptapeptide M3M4 loop (SQPARAA) was described previously. Point mutations, alanine and Gly-Ser-Ala insertions into the 5-HT3A-ΔM3M4 construct were generated with the Quikchange site directed mutagenesis procedure (Stratagene, La Jolla, CA). […]
(§3) Currents were recorded under two-electrode voltage clamp from oocytes 2–5 d post-injection as described previously. […]
(§4) Desensitization rates were determined by fitting a single exponential decay function to the current data with Prism 4 software (GraphPad Software). Significant differences compared with wild-type were determined by a one-way ANOVA (p<0.05) using Dunnett's multiple comparison post-hoc test (p<0.05). […]

The target in assay [3] is T3, 5-HT3A construct with single glycine in place of the single alanine (Mus musculus, UniProt P23979, DELINS338-452G).
T3 construct: expressed in transfected cells; host or cells: Xenopus laevis oocytes injected with mRNA
In words: Two-electrode voltage clamp, oocytes expressing single glycine loop construct. Format: cell-based. Conditions: Xenopus oocytes, data not shown.
From the text: as §1, §2, §3, §4

Assay [4] addresses T4, 5-HT3A M3M4 loop SQPAAAA construct (Mus musculus, UniProt P23979).
T4 construct: expressed in transfected cells; host or cells: Xenopus laevis oocytes injected with mRNA
In words: Two-electrode voltage clamp, oocytes expressing SQPAAAA loop construct. It counts as cell-based. Conditions: 10 µM 5-HT, Xenopus oocytes.
From the text: as §1, §2, §3, §4
On the technique in general: In two-electrode clamp one electrode senses voltage and the other passes current.

In assay [5] the target is T5, 5-HT3A construct with single proline in place of the single alanine (Mus musculus, UniProt P23979, DELINS338-452P).
T5 construct: expressed in transfected cells; host or cells: Xenopus laevis oocytes injected with mRNA
Description: Two-electrode voltage clamp, oocytes expressing single proline loop construct. Format: cell-based. Conditions: Xenopus oocytes, data not shown.
From the text: as §1, §2, §3, §4

Assay [6] deals with T6, 5-HT3A-A2 (M3M4 loop replaced by two alanines) (Mus musculus, UniProt P23979, DELINS338-452AA).
T6 construct: expressed in transfected cells; host or cells: Xenopus laevis oocytes injected with mRNA
T6 sequence (P23979 with tags, fused parts or gaps isoform P23979-2 DELINS338-452AA limits assumed): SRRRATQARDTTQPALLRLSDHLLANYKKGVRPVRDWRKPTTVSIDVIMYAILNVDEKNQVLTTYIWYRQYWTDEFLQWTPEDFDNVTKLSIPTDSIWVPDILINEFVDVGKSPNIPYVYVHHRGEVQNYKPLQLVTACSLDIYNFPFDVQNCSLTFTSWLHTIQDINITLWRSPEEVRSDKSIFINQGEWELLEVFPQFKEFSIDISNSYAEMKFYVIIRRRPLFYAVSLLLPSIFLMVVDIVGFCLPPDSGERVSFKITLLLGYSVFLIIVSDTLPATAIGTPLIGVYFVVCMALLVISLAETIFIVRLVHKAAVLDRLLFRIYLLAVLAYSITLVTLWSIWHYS
In words: Two-electrode voltage clamp, oocytes expressing 5-HT3A-A2. It counts as cell-based.
From the text: as §1
The construction of the 5-HT3A-glvM3M4 chimera with the 5-HT3A M3M4 loop replaced by the GLIC heptapeptide M3M4 loop (SQPARAA) was described previously. Point mutations, alanine and Gly-Ser-Ala insertions into the 5-HT3A-ΔM3M4 construct were generated with the Quikchange site directed mutagenesis procedure (Stratagene, La Jolla, CA). The entire coding region of all mutant constructs was verified by DNA sequencing (Albert Einstein College of Medicine DNA Sequencing Facility). The pXOON plasmid was linearized using NheI and capped mRNA prepared with T7 RNA polymerase (mMessage mMachine, Ambion, Austin, TX).
Use of Xenopus laevis in this study was carried out in strict accordance with the recommendations in the Guide for the Care and Use of Laboratory Animals of the National Institutes of Health. The protocol was approved by the Albert Einstein College of Medicine Animal Care and Use Committee (Protocol Number: 20081201). All surgery was performed under tricaine anesthesia, and all efforts were made to minimize suffering. Oocyctes were harvested from Xenopus (Nasco Science, Fort Atkinson, WI) anesthetized with 0.15% tricaine. Oocyctes were defolliculated by incubation in 2 mg ml^−1 Type 1A collagenase (Sigma-Aldrich, St. Louis, MO) in OR2 (85 mM NaCl, 2 mM KCl, 1 mM MgCl2, and 5 mM HEPES; pH adjusted to 7.5 with NaOH) for a 60 or 75 min. Oocytes were washed in OR2 and stored at 16°C in SOS medium: 100 mM NaCl, 2 mM KCl, 1 mM MgCl2, 1.8 mM CaCl2 5 mM HEPES, pH 7.5 with 100 IU ml^−1 penicillin, 100 µg ml^−1 streptomycin, and 250 ng ml^−1 amphotericin B (Invitrogen, Carlsbad, CA) and 5% horse serum (Sigma-Aldrich). 24 hrs following isolation, oocyctes were injected with 23 nl (2.3 ng) of mRNA and were kept in SOS media for 2–5 d at 16°C.
Currents were recorded under two-electrode voltage clamp from oocytes 2–5 d post-injection as described previously. […] The perfusion chamber volume was 200 µl. […]
as §4

Assay [7] concerns the target T7, 5-HT3A M3M4 loop GSAGSA mutant (Mus musculus, UniProt P23979).
T7 construct: expressed in transfected cells; host or cells: Xenopus laevis oocytes injected with mRNA
In words: Two-electrode voltage clamp, oocytes expressing GSAGSA M3M4 mutant. It counts as cell-based. The note with it: 10 µM 5-HT, Xenopus oocytes.
From the text: as §1, §2, §3, §4

Assay [8] deals with T8, 5-HT3A M3M4 loop GSAGSAGSA mutant (Mus musculus, UniProt P23979).
T8 construct: expressed in transfected cells; host or cells: Xenopus laevis oocytes injected with mRNA
Description: Two-electrode voltage clamp, oocytes expressing […] M3M4 mutant. The note with it: Xenopus oocytes. Format: cell-based.
From the text: as §1, §2, §3, §4

T8 sequence (P23979 with tags, fused parts or gaps isoform P23979-2 limits assumed, change not shown): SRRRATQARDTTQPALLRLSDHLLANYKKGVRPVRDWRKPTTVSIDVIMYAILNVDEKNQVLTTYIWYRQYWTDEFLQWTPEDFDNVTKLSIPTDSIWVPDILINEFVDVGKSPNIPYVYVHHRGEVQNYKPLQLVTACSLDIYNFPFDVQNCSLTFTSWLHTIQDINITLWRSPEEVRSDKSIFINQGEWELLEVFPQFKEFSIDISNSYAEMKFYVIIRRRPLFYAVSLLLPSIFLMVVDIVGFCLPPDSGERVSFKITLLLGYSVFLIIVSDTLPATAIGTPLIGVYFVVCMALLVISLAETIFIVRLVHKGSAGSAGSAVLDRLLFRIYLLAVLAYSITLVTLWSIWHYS
T2 sequence (P23979 with tags, fused parts or gaps): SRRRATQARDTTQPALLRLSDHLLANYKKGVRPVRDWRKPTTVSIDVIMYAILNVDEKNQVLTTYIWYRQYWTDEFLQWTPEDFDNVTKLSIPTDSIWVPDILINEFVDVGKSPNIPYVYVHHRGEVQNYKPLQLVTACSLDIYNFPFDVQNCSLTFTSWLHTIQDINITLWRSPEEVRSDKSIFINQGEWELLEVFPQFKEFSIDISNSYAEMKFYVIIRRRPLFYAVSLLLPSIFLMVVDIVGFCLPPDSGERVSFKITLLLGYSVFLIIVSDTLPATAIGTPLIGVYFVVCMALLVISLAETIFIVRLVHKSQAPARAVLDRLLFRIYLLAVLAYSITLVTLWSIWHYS
T1 sequence (P23979 24-483 isoform P23979-2 limits assumed): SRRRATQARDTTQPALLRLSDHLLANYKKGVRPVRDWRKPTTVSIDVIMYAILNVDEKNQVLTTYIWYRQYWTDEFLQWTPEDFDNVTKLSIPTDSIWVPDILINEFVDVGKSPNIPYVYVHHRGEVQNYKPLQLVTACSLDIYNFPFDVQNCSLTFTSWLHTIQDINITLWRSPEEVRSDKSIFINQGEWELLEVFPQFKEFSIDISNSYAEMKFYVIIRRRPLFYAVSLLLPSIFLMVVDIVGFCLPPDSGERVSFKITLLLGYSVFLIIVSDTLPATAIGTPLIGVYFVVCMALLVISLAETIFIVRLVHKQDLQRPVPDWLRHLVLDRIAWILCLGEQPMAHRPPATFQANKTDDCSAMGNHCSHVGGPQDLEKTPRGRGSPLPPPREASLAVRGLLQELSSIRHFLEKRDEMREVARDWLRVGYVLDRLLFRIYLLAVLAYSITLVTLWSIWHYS
T4 sequence (P23979 with tags, fused parts or gaps): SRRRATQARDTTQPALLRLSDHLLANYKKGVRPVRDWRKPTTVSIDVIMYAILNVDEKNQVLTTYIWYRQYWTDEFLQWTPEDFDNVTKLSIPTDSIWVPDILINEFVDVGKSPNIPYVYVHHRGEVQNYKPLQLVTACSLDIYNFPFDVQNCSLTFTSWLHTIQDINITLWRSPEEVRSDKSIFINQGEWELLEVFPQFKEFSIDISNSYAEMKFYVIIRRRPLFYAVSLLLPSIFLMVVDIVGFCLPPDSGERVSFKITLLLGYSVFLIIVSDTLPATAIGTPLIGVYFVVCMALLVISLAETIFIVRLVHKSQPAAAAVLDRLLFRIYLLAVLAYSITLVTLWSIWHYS
T5 sequence (P23979 with tags, fused parts or gaps isoform P23979-2 DELINS338-452P limits assumed): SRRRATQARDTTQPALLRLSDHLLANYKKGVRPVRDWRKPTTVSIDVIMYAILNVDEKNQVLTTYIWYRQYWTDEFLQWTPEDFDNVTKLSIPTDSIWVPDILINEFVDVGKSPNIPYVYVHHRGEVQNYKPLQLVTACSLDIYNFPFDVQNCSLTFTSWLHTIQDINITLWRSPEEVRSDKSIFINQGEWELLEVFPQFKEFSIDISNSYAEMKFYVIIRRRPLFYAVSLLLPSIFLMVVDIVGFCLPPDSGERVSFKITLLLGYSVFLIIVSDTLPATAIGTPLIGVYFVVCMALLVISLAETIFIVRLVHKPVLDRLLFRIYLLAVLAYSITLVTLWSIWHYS
T3 sequence (P23979 with tags, fused parts or gaps isoform P23979-2 DELINS338-452G limits assumed): as the sequence (P23979 with tags, fused parts or gaps isoform P23979-2 DELINS338-452P limits assumed) above, with P315G counted along it
T7 sequence (P23979 with tags, fused parts or gaps isoform P23979-2 limits assumed, change not shown): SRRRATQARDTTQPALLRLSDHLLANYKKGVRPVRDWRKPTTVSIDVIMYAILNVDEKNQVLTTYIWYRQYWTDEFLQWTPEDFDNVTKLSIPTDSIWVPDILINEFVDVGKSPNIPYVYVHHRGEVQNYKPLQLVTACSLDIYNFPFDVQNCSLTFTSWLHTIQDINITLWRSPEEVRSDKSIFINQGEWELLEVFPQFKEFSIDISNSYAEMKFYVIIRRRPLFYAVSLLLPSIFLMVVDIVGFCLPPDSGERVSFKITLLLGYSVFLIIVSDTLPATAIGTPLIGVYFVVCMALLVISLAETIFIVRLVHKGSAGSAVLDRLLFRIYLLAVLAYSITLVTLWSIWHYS

Turning to `NCCc1c[nH]c2ccc(O)cc12` [5-HT, 5-hydroxytryptamine], the “Radiolabeled 5-HT bound per oocyte” value in assay [1] is recorded as 2.50±0.3 pmol per oocyte. Besides, the Peak current in assay [2] is 87±30 nA. Further, the 5-HT induced current entry was “neither construct generated any 5-HT induced currents” in assay [3]; “large currents” in assay [4]; “neither construct generated any 5-HT induced currents” in assay [5]; 730±45 nA in assay [7]; “no detectable currents” in assay [8]. The “nH (Hill coefficient)” value in assay [6] came to 2.0±0.3. Also, the “10–90% Activation rise time” value in assay [6] (10 µM 5-HT) is 617 ± 32 ms. Besides, the “Imax (peak current)” value in assay [6] (10 µM 5-HT, Xenopus oocytes, -60 mV) is 6900±260 nA. Also, the “Desensitization time constant τ” value in assay [6] (prolonged 10 µM 5-HT) was 43 ± 4 s.
